# According to US20180256557A1, “PHARMACEUTICAL COMBINATION COMPRISING (A) THE ALPHA-ISOFORM SPECIFIC PI3K INHIBITOR ALPELISIB (BYL719) AND (B) AN AKT INHIBITOR, PREFERABLY MK-2206, AFURESERTIB OR UPROSERTIB, AND THE USE THEREOF IN THE TREATMENT/PREVENTION OF CANCER” (priority 2015, published 2018):
# Columns and labels:
# Format in all cases: cell-based
# [1] = system: CL-11 colorectal cancer cell line; experiment: Cell proliferation, cell count by microscopy; conditions: single agent; CL-11 (KRAS); 96 h treatment
# Protocol: (§1) COMPOUNDS A and B were dissolved in 100% DMSO (Sigma, Catalog number D2650) at concentrations of 20 mM and stored at −20° C. until use. Compounds were arrayed in drug master plates (Greiner, Catalog number 788876) and serially diluted 3-fold (7 steps) at 2000× concentration.
# (§2) Colorectal cancer cell lines used for this study were obtained, cultured and processed from commercial vendors ATCC, CellBank Australia, DSMZ, ECACC, HSRRB, and RIKEN (Table 1). All cell line media were supplemented with 10% FBS (HyClone, Catalog number SH30071.03). Media for LIM2405 and LIM2551 was additionally supplemented with 0.6 μg/mL Insulin (SIGMA, Catalog number 19278), 1 μg/mL Hydrocortisone (SIGMA, Catalog number H0135), and 10 μM 1-Thioglycerol (SIGMA, Catalog number M6145).
# (§3) Cell lines were cultured in 37° C. and 5% CO2 incubator and expanded in T-75 flasks. In all cases cells were thawed from frozen stocks, expanded through ≥1 passage using 1:3 dilutions, counted and assessed for viability using a ViCell counter (Beckman-Coulter) prior to plating. To split and expand cell lines, cells were dislodged from flasks using 0.25% Trypsin-EDTA (GIBCO, Catalog number 25200). All cell lines were determined to be free of mycoplasma contamination as determined by a PCR detection methodology performed at Idexx Radil (Columbia, Mo., USA) and correctly identified by detection of a panel of SNPs.
# (§4) To test the effect of the combination of COMPOUND A and COMPOUND B on cell proliferation cells were plated in black 384-well microplates with clear bottom (Matrix/Thermo Scientific, Catalog number 4332) in 50 μL media per well at cell densities between 500 and 1250 cells/well (Table 1) and allowed to incubate at 37 degrees, 5% CO2 for 24 h. After 24 h one 384-well plate per cell line was prepared for cell counting by microscopy (see below) without receiving treatment (=‘baseline’). The other cell plates were treated by transferring 25 nL of the 2000× compound from drug master plates using an ATS acoustic liquid dispenser (ECD Biosystems) and resulting in a final 1× concentration. COMPOUND A was used over a final concentration range of 13 nM-10 μM, and COMPOUND B was used over a final concentration range of 13 nM-10 μM (7 1:3 dilution steps). For the combination of COMPOUND A with COMPOUND B the single agents were combined at a fixed ratio of 1:1 at each dilution resulting in 7 combination treatments. […] After compound addition 50 nL of 2 mM CellEvent Caspase-3/7 Green Detection Reagent (ThermoFisher, Catalog number C10423) were added to one of the three replicates using the HP D300 Digital Dispenser (Tecan). Caspase 3/7 induction was measured as a proxy for apoptosis induced by the treatments. Cells were treated for 72 h to 96 h depending on their doubling time (Table 1), and Caspase 3/7 activation was measured every 24 h by microscopy using an InCell Analyzer 2000 (GE Healthcare) equipped with a 4× objective and FITC excitation/emission filters. At the end of the treatment cells were prepared for cell counting by microscopy. Cells were fixed and permeabilised for 45 minutes in 4% PFA (Electron Microscopy Sciences, Catalog number 15714), 0.12% TX-100 (Electron Microscopy Sciences, Catalog number 22140) in PBS (Boston Bioproducts, Catalog number BM-220). After washing cells three times with PBS their DNA was stained for 30 minutes with Hoechst 33342 (ThermoFisher, Catalog number H3570) at a final concentration of 4 μg/ml. Cells were washed three times with PBS and then plates were heat-sealed using a PlateLoc (Agilent Technologies) with aluminum seals (Agilent Technologies, Catalog number 06644-001) and stored at 4° C. until imaging. All cells per well/treatment were captured in a single image by fluorescence microscopy using an InCell Analyzer 2000 (GE Healthcare) equipped with a 4× objective and DAPI excitation/emission filters. […]
# [2] = system: COLO-205 colorectal cancer cell line; experiment: Cell proliferation, cell count by microscopy; conditions: Homo sapiens; single agent; COLO-205 (BRAF); 72 h treatment
# Protocol: as §1, §2, §3, §4
# [3] = system: COLO-320 colorectal cancer cell line; experiment: Cell proliferation, cell count by microscopy; conditions: Homo sapiens; single agent; COLO-320 (no driver mutation listed); 72 h treatment
# Protocol: as §1, §2, §3, §4
# [4] = system: COLO-678 colorectal cancer cell line; experiment: Cell proliferation, cell count by microscopy; conditions: Homo sapiens; single agent; COLO-678 (KRAS); 96 h treatment
# Protocol: as §1, §2, §3, §4
# [5] = system: CW-2 colorectal cancer cell line; experiment: Cell proliferation, cell count by microscopy; conditions: single agent; CW-2 (no driver mutation listed); 96 h treatment
# Protocol: as §1, §2, §3, §4
# [6] = system: DLD-1 colorectal cancer cell line; experiment: Cell proliferation, cell count by microscopy; conditions: Homo sapiens; single agent; DLD-1 (KRAS, PIK3CA); 72 h treatment
# Protocol: as §1, §2, §3, §4
# [7] = system: GP2d colorectal cancer cell line; experiment: Cell proliferation, cell count by microscopy; conditions: single agent; GP2d (KRAS, PIK3CA); 72 h treatment
# Protocol: as §1, §2, §3, §4
# [8] = system: HCT-116 colorectal cancer cell line; experiment: Cell proliferation, cell count by microscopy; conditions: Homo sapiens; single agent; HCT-116 (KRAS, PIK3CA); 72 h treatment
# Protocol: as §1, §2, §3, §4
# [9] = system: HT-29 colorectal cancer cell line; experiment: Cell proliferation, cell count by microscopy; conditions: Homo sapiens; single agent; HT-29 (BRAF, PIK3CA); 72 h treatment
# Protocol: as §1, §2, §3, §4
# [10] = system: HT55 colorectal cancer cell line; experiment: Cell proliferation, cell count by microscopy; conditions: Homo sapiens; single agent; HT55 (no driver mutation listed); 96 h treatment
# Protocol: as §1, §2, §3, §4
# [11] = system: LIM2405 colorectal cancer cell line; experiment: Cell proliferation, cell count by microscopy; conditions: single agent; LIM2405 (BRAF); 72 h treatment
# Protocol: as §1, §2, §3, §4
# [12] = system: LIM2551 colorectal cancer cell line; experiment: Cell proliferation, cell count by microscopy; conditions: single agent; LIM2551 (BRAF, PIK3CA); 72 h treatment
# Protocol: as §1, §2, §3, §4
# [13] = system: LS-180 colorectal cancer cell line; experiment: Cell proliferation, cell count by microscopy; conditions: Homo sapiens, LS180; single agent; LS-180 (KRAS, PIK3CA); 72 h treatment
# Protocol: as §1, §2, §3, §4
# [14] = system: LS411N colorectal cancer cell line; experiment: Cell proliferation, cell count by microscopy; conditions: Homo sapiens, LS-411N; single agent; LS411N (BRAF); 72 h treatment
# Protocol: as §1, §2, §3, §4
# [15] = system: LoVo colorectal cancer cell line; experiment: Cell proliferation, cell count by microscopy; conditions: Homo sapiens; single agent; LoVo (KRAS); 96 h treatment
# Protocol: as §1, §2, §3, §4
# [16] = system: NCI-H508 colorectal cancer cell line; experiment: Cell proliferation, cell count by microscopy; conditions: Homo sapiens; single agent; NCI-H508 (PIK3CA); 72 h treatment
# Protocol: as §1, §2, §3, §4
# [17] = system: OUMS-23 colorectal cancer cell line; experiment: Cell proliferation, cell count by microscopy; conditions: single agent; OUMS-23 (BRAF); 72 h treatment
# Protocol: as §1, §2, §3, §4
# [18] = system: RKO colorectal cancer cell line; experiment: Cell proliferation, cell count by microscopy; conditions: single agent; RKO (BRAF, PIK3CA); 72 h treatment
# Protocol: as §1, §2, §3, §4
# [19] = system: SNU-C2A colorectal cancer cell line; experiment: Cell proliferation, cell count by microscopy; conditions: single agent; SNU-C2A (KRAS); 96 h treatment
# Protocol: as §1, §2, §3, §4
# [20] = system: SW48 colorectal cancer cell line; experiment: Cell proliferation, cell count by microscopy; conditions: Homo sapiens; single agent; SW48 (MEK1); 96 h treatment
# Protocol: as §1, §2, §3, §4
# [21] = system: SW480 colorectal cancer cell line; experiment: Cell proliferation, cell count by microscopy; conditions: Homo sapiens; single agent; SW480 (KRAS); 72 h treatment
# Protocol: as §1, §2, §3, §4
# [22] = system: SW620 colorectal cancer cell line; experiment: Cell proliferation, cell count by microscopy; conditions: Homo sapiens, SW-620; single agent; SW620 (KRAS); 72 h treatment
# Protocol: as §1, §2, §3, §4
# [23] = system: SW837 colorectal cancer cell line; experiment: Cell proliferation, cell count by microscopy; conditions: Homo sapiens; single agent; SW837 (KRAS); 72 h treatment
# Protocol: as §1, §2, §3, §4
# [24] = system: 23 colorectal cancer cell lines; experiment: Cell proliferation over the panel of cell lines; conditions: single agent; for IC50 values over the cell line panel: summary in words of FIG. 1 and Table 2
# Protocol: as §1, §2, §3
# To test the effect of the combination of COMPOUND A and COMPOUND B on cell proliferation cells were plated in black 384-well microplates with clear bottom (Matrix/Thermo Scientific, Catalog number 4332) in 50 μL media per well at cell densities between 500 and 1250 cells/well (Table 1) and allowed to incubate at 37 degrees, 5% CO2 for 24 h. […] Caspase 3/7 induction was measured as a proxy for apoptosis induced by the treatments. Cells were treated for 72 h to 96 h depending on their doubling time (Table 1), and Caspase 3/7 activation was measured every 24 h by microscopy using an InCell Analyzer 2000 (GE Healthcare) equipped with a 4× objective and FITC excitation/emission filters. […]
SMILES,IC50 [1],IC50 [2],IC50 [3],IC50 [4],IC50 [5],IC50 [6],IC50 [7],IC50 [8],IC50 [9],IC50 [10],IC50 [11],IC50 [12],IC50 [13],IC50 [14],IC50 [15],IC50 [16],IC50 [17],IC50 [18],IC50 [19],IC50 [20],also measured
"Cc1nc(NC(=O)N2CCC[C@H]2C(N)=O)sc1-c1ccnc(C(C)(C)C(F)(F)F)c1 [COMPOUND A, (S)-Pyrrolidine-1,2-dicarboxylic acid 2-amide 1-({4-methyl-5-[2-(2,2,2-trifluoro-1,1-dimethyl-ethyl)-pyridin-4-yl]-thiazol-2-yl}-amide)]",3.2 µM,> 10 µM,7.3 µM,> 10 µM,> 10 µM,> 10 µM,0.3 µM,6.9 µM,1.9 µM,1.1 µM,> 10 µM,1.4 µM,7.1 µM,> 10 µM,7.5 µM,1.3 µM,> 10 µM,2.6 µM,> 10 µM,3.2 µM,IC50 [21]: > 10 µM; IC50 [22]: > 10 µM; IC50 [23]: 9.3 µM; growth inhibition of PIK3CA mutant cell lines compared to PIK3CA wild type cell lines ([24]; one-tailed t-test on normalized cell counts (FIG. 3)): significantly stronger; IC50 values over the cell line panel [24]: micromolar
"NC1(c2ccc(-c3nc4ccn5c(=O)[nH]nc5c4cc3-c3ccccc3)cc2)CCC1 [COMPOUND B, 8-[4-(1-Aminocyclobutyl)phenyl]-9-phenyl-1,2,4-triazolo[3,4-f][1,6]naphthyridin-3(2H)-one, reference compound]",> 10 µM,5.4 µM,5.1 µM,> 10 µM,6.4 µM,> 10 µM,0.6 µM,> 10 µM,3.8 µM,1 µM,> 10 µM,1.4 µM,> 10 µM,3 µM,0.1 µM,1.5 µM,> 10 µM,3.9 µM,> 10 µM,> 10 µM,IC50 [21]: > 10 µM; IC50 [22]: > 10 µM; IC50 [23]: > 10 µM; IC50 values over the cell line panel [24]: micromolar
